Results: patent US10300042B2, “Apremilast for the treatment of a liver disease or a liver function abnormality” (Celgene Corporation, priority 2014, dated 2019)

Tests used:
Alanine Aminotransferase [1] = experiment: ALT levels in PSOR-008 and PSOR-009 (plaque psoriasis); type: in vivo, human; conditions: for ALT High, % of patients / ALT Low, % of patients / ALT Normal, % of patients: Week 16, 30 mg BID
Protocol: Apremilast was studied in Phase 3 trials in patients with moderate to severe plaque psoriasis. […] The improvement in mild baseline liver function test abnormalities has been observed with apremilast daily use without any prescribed changes in physical activity, social or dietary habits. During the course of the study, there was observed a higher proportion of subjects in the apremilast treatment group (30 mg BID) with normal LFTs (i.e. normal levels of ALT and AST) at subsequent placebo-controlled study visits at week 16. See Tables 11 to 16 from PSOR-008 and PSOR-009 studies.

[2] = test system: patients with moderate to severe plaque psoriasis; experiment: Pruritus in ESTEEM 1; type: in vivo, human; conditions: Week 16, 30 mg BID
Protocol: Patients were randomized with Apremilast in an amount of 30 mg twice per day or placebo for the first 16 weeks, and from Weeks 16 to 32, all patients received Apremilast in an amount of 30 mg twice per day.

Alanine Aminotransferase [3] = experiment: ALT levels in PALACE 1, 2, and 3 clinical studies; type: in vivo, human
Description: Apremilast was studied in Phase 3 trials in both psoriatic arthritis and psoriasis patient populations and a Phase 2 trial in rheumatoid arthritis patients on background methotrexate. […] The improvement in mild baseline liver function test abnormalities has been observed with apremilast daily use without any prescribed changes in physical activity, social or dietary habits. The majority of the patient populations in both the psoriatic arthritis and psoriasis studies were overweight with the mean BMI for subjects greater than or equal to 30, more than half were consuming alcoholic beverages regularly, approximately 60% were taking methotrexate at an average dose of […], and 70% were using non-steroidal anti-inflammatory drugs (NSAIDs). […] During the course of the study, there was observed a higher proportion of subjects in the apremilast treatment groups (both 20 mg BID and 30 mg BID) with normal LFTs (i.e. normal levels of ALT and AST) at subsequent placebo-controlled study visits at week 4, week 16, and week 24 (See Tables 1 to 10 from PALACE 1, 2, and 3 studies).

[4] = test system: Aspartate Aminotransferase; experiment: AST levels in RA-002 (rheumatoid arthritis); type: in vivo, human; conditions: for AST High to Normal, percent of patients / AST Net Benefit / AST Normal to High, percent of patients: end of treatment (week 16); for AST High, % of patients / AST Low, % of patients / AST Normal, % of patients: Week 16
Protocol: The improvement in mild baseline liver function test abnormalities has been observed with apremilast daily use without any prescribed changes in physical activity, social or dietary habits. During the course of the study, there was observed a higher proportion of subjects in the 30 mg BID apremilast treatment group with normal LFTs at subsequent placebo-controlled study visits at week 16. See Tables 17 to 24 from RA-002 studies.

PDE2 = PDE2 (Homo sapiens, UniProt O00408); experiment: PDE2 enzyme assay; type: biochemical
Chain of PDE2 (O00408 whole entry): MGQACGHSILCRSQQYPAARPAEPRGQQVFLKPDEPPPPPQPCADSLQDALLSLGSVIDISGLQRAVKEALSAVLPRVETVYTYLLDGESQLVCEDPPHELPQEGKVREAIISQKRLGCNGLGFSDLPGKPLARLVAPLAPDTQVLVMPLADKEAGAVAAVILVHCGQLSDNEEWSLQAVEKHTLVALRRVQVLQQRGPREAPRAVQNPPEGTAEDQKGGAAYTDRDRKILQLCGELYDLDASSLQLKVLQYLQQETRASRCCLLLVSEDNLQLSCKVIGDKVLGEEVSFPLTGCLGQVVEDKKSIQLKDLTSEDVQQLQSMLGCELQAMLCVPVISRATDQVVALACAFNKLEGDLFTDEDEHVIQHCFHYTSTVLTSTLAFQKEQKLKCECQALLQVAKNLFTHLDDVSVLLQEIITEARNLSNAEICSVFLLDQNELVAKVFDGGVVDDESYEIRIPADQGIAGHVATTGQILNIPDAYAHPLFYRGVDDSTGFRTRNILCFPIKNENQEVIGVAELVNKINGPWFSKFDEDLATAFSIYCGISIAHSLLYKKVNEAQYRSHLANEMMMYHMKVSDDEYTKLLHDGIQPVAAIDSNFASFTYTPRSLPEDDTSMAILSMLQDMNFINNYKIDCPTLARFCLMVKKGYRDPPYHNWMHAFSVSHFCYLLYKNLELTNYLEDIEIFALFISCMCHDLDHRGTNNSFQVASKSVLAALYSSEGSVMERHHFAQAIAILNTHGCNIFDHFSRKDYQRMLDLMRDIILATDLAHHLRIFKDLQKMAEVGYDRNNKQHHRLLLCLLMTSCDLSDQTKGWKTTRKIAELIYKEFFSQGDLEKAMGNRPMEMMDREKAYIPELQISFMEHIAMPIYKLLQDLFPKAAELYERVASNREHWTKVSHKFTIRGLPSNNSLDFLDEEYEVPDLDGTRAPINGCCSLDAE
Protocol: (§1) PDE1, 2, 3 and 5 enzyme assays were prepared as described by Hidaka and Asano. Biochem. Biophys. Acta., 1976, 429:485; see also Nicholsen et al., Trends Pharmaco. Sci., 1991, 12:19. The PDE6 enzyme assay was prepared according to Baehr et al., J. Biol. Chem., 1979, 254:11669 and Gillespie et al., Mol. Pharm., 1989, 36: 773. The PDE7 enzyme assay was prepared according to Bloom and Beavo. Proc. Natl. Acad. Sci. USA, 1996, 93:14188-92.

PDE6 = PDE6 enzyme assay; type: biochemical; conditions: at 10 μM
Protocol: as §1

[5] = 30 BID, end of treatment (week 16)
[6] = Baseline High, Week 24, 20 mg BID
[7] = Baseline High, Week 24, 30 mg BID
[8] = Baseline Normal, Week 24, 20 mg BID
[9] = Baseline Normal, Week 24, 30 mg BID
[10] = Baseline Total, Week 24, 20 mg BID
[11] = Baseline Total, Week 24, 30 mg BID

SMILES: CCOc1cc([C@@H](CS(C)(=O)=O)N2C(=O)c3cccc(NC(C)=O)c3C2=O)ccc1OC [Apremilast, (+)-2-[1-(3-ethoxy-4-methoxyphenyl)-2-methylsulfonylethyl]-4-acetylaminoisoindoline-1,3-dione]
- ALT High to Normal, percent of patients (Alanine Aminotransferase [1]; [5]): 57.1%
- ALT Net Benefit (Alanine Aminotransferase [1]; [5]): 53.7%
- ALT Normal to High, percent of patients (Alanine Aminotransferase [1]; [5]): 3.7%
- ALT High to Normal, Difference (APR 30 BID vs Placebo) (Alanine Aminotransferase [1]; 30 BID, week 16): 3.1%
- ALT Net Benefit, Difference (APR 30 BID vs Placebo) (Alanine Aminotransferase [1]; 30 BID, week 16): 17.9%
- ALT Normal to High, Difference (APR 30 BID vs Placebo) (Alanine Aminotransferase [1]; 30 BID, week 16): −2.1%
- ALT High to Normal, Difference (APR 30 BID vs Placebo) (Alanine Aminotransferase [1]; 30 BID, week 16, listed as APR): 3.1%
- ALT High, % of patients (Alanine Aminotransferase [1]; Baseline High): 42.9%
- ALT Low, % of patients (Alanine Aminotransferase [1]; Baseline High): 0.0%
- ALT Normal, % of patients (Alanine Aminotransferase [1]; Baseline High): 57.1%
- ALT High, % of patients (Alanine Aminotransferase [1]; Baseline Normal): 3.7%
- ALT Low, % of patients (Alanine Aminotransferase [1]; Baseline Normal): 0.0%
- ALT Normal, % of patients (Alanine Aminotransferase [1]; Baseline Normal): 96.3%
- ALT High, % of patients (Alanine Aminotransferase [1]; Baseline Total): 7.8%
- ALT Low, % of patients (Alanine Aminotransferase [1]; Baseline Total): 0.0%
- ALT Normal, % of patients (Alanine Aminotransferase [1]; Baseline Total): 92.2%
- Change in Pruritus Visual Analog Scale (mm ± SD) [2]: −31.5 (±32.43) mm
- ALT High to Normal, percent of patients (Alanine Aminotransferase [3]; 20 BID, end of treatment): 55.3%
- ALT Net Benefit (Alanine Aminotransferase [3]; 20 BID, end of treatment): 40.6%
- ALT Normal to High, percent of patients (Alanine Aminotransferase [3]; 20 BID, end of treatment): 4.5%
- ALT High to Normal, Difference between Placebo and APR 30 BID (Alanine Aminotransferase [3]; 30 BID, end of treatment): 44.4%
- ALT High to Normal, percent of patients (Alanine Aminotransferase [3]; 30 BID, end of treatment): 74.4%
- ALT Net Benefit (Alanine Aminotransferase [3]; 30 BID, end of treatment): 51.8%
- ALT Net Benefit, Difference between Placebo and APR 30 BID (Alanine Aminotransferase [3]; 30 BID, end of treatment): 36.8%
- ALT Normal to High, Difference between Placebo and APR 30 BID (Alanine Aminotransferase [3]; 30 BID, end of treatment): −2.8%
- ALT Normal to High, percent of patients (Alanine Aminotransferase [3]; 30 BID, end of treatment): 4.4%
- ALT High, % of patients (Alanine Aminotransferase [3]; [6]): 44.7%
- ALT Low, % of patients (Alanine Aminotransferase [3]; [6]): 0.0%
- ALT Normal, % of patients (Alanine Aminotransferase [3]; [6]): 55.3%
- ALT High, % of patients (Alanine Aminotransferase [3]; [7]): 25.6%
- ALT Low, % of patients (Alanine Aminotransferase [3]; [7]): 0.0%
- ALT Normal, % of patients (Alanine Aminotransferase [3]; [7]): 74.4%
- ALT High, % of patients (Alanine Aminotransferase [3]; [8]): 4.5%
- ALT Low, % of patients (Alanine Aminotransferase [3]; [8]): 0.0%
- ALT Normal, % of patients (Alanine Aminotransferase [3]; [8]): 95.5%
- ALT High, % of patients (Alanine Aminotransferase [3]; [9]): 4.4%
- ALT Low, % of patients (Alanine Aminotransferase [3]; [9]): 0.0%
- ALT Normal, % of patients (Alanine Aminotransferase [3]; [9]): 95.6%
- ALT High, % of patients (Alanine Aminotransferase [3]; [10]): 8.9%
- ALT Low, % of patients (Alanine Aminotransferase [3]; [10]): 0.0%
- ALT Normal, % of patients (Alanine Aminotransferase [3]; [10]): 91.1%
- ALT High, % of patients (Alanine Aminotransferase [3]; [11]): 6.3%
- ALT Low, % of patients (Alanine Aminotransferase [3]; [11]): 0.0%
- ALT Normal, % of patients (Alanine Aminotransferase [3]; [11]): 93.7%
- Baseline High ALT: High % (Alanine Aminotransferase [3]; Week 4, 20 mg BID): 54.2%
- Baseline High ALT: Normal % (Alanine Aminotransferase [3]; Week 4, 20 mg BID): 45.8%
- Baseline High ALT: Normal % difference from Placebo (Alanine Aminotransferase [3]; Week 4, 20 mg BID): 8.7%
- Baseline High ALT: High % (Alanine Aminotransferase [3]; Week 4, 30 mg BID): 41.1%
- Baseline High ALT: Normal % (Alanine Aminotransferase [3]; Week 4, 30 mg BID): 58.9%
- Baseline High ALT: Normal % difference from Placebo (Alanine Aminotransferase [3]; Week 4, 30 mg BID): 21.8%
- Baseline High ALT: High % (Alanine Aminotransferase [3]; Week 16, 20 mg BID): 36.8%
- Baseline High ALT: Normal % (Alanine Aminotransferase [3]; Week 16, 20 mg BID): 63.2%
- Baseline High ALT: Normal % difference from Placebo (Alanine Aminotransferase [3]; Week 16, 20 mg BID): 12.4%
- Baseline High ALT: High % (Alanine Aminotransferase [3]; Week 16, 30 mg BID): 32.7%
- Baseline High ALT: Normal % (Alanine Aminotransferase [3]; Week 16, 30 mg BID): 67.3%
- Baseline High ALT: Normal % difference from Placebo (Alanine Aminotransferase [3]; Week 16, 30 mg BID): 16.5%
- Baseline High ALT: High % (Alanine Aminotransferase [3]; Week 24, 20 mg BID): 45.1%
- Baseline High ALT: Normal % (Alanine Aminotransferase [3]; Week 24, 20 mg BID): 54.9%
- Baseline High ALT: Normal % difference from Placebo (Alanine Aminotransferase [3]; Week 24, 20 mg BID): 14.9%
- Baseline High ALT: High % (Alanine Aminotransferase [3]; Week 24, 30 mg BID): 23.8%
- Baseline High ALT: Normal % (Alanine Aminotransferase [3]; Week 24, 30 mg BID): 76.2%
- Baseline High ALT: Normal % difference from Placebo (Alanine Aminotransferase [3]; Week 24, 30 mg BID): 36.2%
- AST High to Normal, percent of patients ([4]; 20 BID): 50.0%
- AST Net Benefit ([4]; 20 BID): 33.3%
- AST Normal to High, percent of patients ([4]; 20 BID): 3.0%
- AST High to Normal, percent of patients ([4]; 30 BID): 100.0%
- AST Net Benefit ([4]; 30 BID): 50.0%
- AST Normal to High, percent of patients ([4]; 30 BID): 4.7%
- AST High to Normal, Difference between Placebo and APR 30 BID ([4]; 30 BID, week 16): 50%
- AST Net Benefit, Difference between Placebo and APR 30 BID ([4]; 30 BID, week 16): 16.7%
- AST Normal to High, Difference between Placebo and APR 30 BID ([4]; 30 BID, week 16): 1.7%
- AST High to Normal, Difference between Placebo and APR 30 BID ([4]; 30 BID, week 16, listed as APR): 50.0%
- AST High, % of patients ([4]; Baseline High, 20 mg BID): 50.0%
- AST Low, % of patients ([4]; Baseline High, 20 mg BID): 0.0%
- AST Normal, % of patients ([4]; Baseline High, 20 mg BID): 50.0%
- AST High, % of patients ([4]; Baseline High, 30 mg BID): 0.0%
- AST Low, % of patients ([4]; Baseline High, 30 mg BID): 0.0%
- AST Normal, % of patients ([4]; Baseline High, 30 mg BID): 100.0%
- AST High, % of patients ([4]; Baseline Normal, 20 mg BID): 3.0%
- AST Low, % of patients ([4]; Baseline Normal, 20 mg BID): 0.0%
- AST Normal, % of patients ([4]; Baseline Normal, 20 mg BID): 97.0%
- AST High, % of patients ([4]; Baseline Normal, 30 mg BID): 4.7%
- AST Low, % of patients ([4]; Baseline Normal, 30 mg BID): 0.0%
- AST Normal, % of patients ([4]; Baseline Normal, 30 mg BID): 95.3%
- AST High, % of patients ([4]; Baseline Total, 20 mg BID): 5.7%
- AST Low, % of patients ([4]; Baseline Total, 20 mg BID): 0.0%
- AST Normal, % of patients ([4]; Baseline Total, 20 mg BID): 94.3%
- AST High, % of patients ([4]; Baseline Total, 30 mg BID): 4.5%
- AST Low, % of patients ([4]; Baseline Total, 30 mg BID): 0.0%
- AST Normal, % of patients ([4]; Baseline Total, 30 mg BID): 95.5%
- inhibition at 10 µM (PDE2): 6%
- % inhibition PDE6 (PDE6): −6%
